From the NIST ThermoML archive (doi:10.1016/j.jct.2016.06.012)
Several values for one entry are separate records, joined by “and”; a condition that tells them apart may be missing. Equal values may be shown once. ± gives the expanded uncertainty stated by the source.

Experiments:
[1] = xn = mol fraction of the nth substance listed; details: 100 kPa, Liquid, x2 = 0; for viscosity: Capillary tube (Ostwald / Ubbelohde) method; for mass density: Vibrating tube method

CCCCn1cc[n+](C)c1C.O=S(=O)([N-]S(=O)(=O)C(F)(F)F)C(F)(F)F
100 kPa, Liquid
Details | mass density, Vibrating tube method [kg/m3] | viscosity, Capillary tube (Ostwald / Ubbelohde) method [mPa·s]
293.15 K | 1423.72 ± 11 | 133.59 ± 3.4
298.15 K | 1419.13 ± 11 | 101.34 ± 2.4
303.15 K | 1414.52 ± 11 | 77.86 ± 1.7
308.15 K | 1409.91 ± 11 | 61.73 ± 1.3
313.15 K | 1405.31 ± 11 | 49.77 ± 1
318.15 K | 1400.7 ± 11 | 40.7 ± 0.85
323.15 K | 1396.13 ± 11 | 33.69 ± 0.71

CCC[n+]1ccn(C)c1C.O=S(=O)([N-]S(=O)(=O)C(F)(F)F)C(F)(F)F
100 kPa, Liquid
Details | mass density, Vibrating tube method [kg/m3] | viscosity, Capillary tube (Ostwald / Ubbelohde) method
293.15 K | 1459.14 ± 12 | 121.7 ± 3 mPa·s
298.15 K | 1454.44 ± 12 | 92.8 ± 2.1 mPa·s
303.15 K | 1449.72 ± 12 | 72.1 ± 1.6 mPa·s and 71.1 ± 1.5 mPa·s
308.15 K | 1445 ± 12 | 57.76 ± 1.2 mPa·s
313.15 K | 1440.28 ± 12 | 46.53 ± 0.98 mPa·s
318.15 K | 1435.57 ± 11 | 38.4 ± 0.81 mPa·s
323.15 K | 1430.87 ± 11 | 31.89 ± 0.67 mPa·s

CCn1cc[n+](C)c1C.O=S(=O)([N-]S(=O)(=O)C(F)(F)F)C(F)(F)F
100 kPa
Details | mass density [kg/m3] | viscosity [mPa·s]
293.15 K, Metastable liquid, Capillary tube (Ostwald / Ubbelohde) method | – | 89.27 ± 2
293.15 K, Metastable liquid, Vibrating tube method | 1496.32 ± 12 | –
298.15 K, Metastable liquid, Capillary tube (Ostwald / Ubbelohde) method | – | 70.77 ± 1.5
298.15 K, Metastable liquid, Vibrating tube method | 1491.47 ± 12 | –
303.15 K, Capillary tube (Ostwald / Ubbelohde) method, Liquid | – | 57.02 ± 1.2
303.15 K, Vibrating tube method, Liquid | 1486.67 ± 12 | –
308.15 K, Capillary tube (Ostwald / Ubbelohde) method, Liquid | – | 46.6 ± 0.98
308.15 K, Vibrating tube method, Liquid | 1481.87 ± 12 | –
313.15 K, Capillary tube (Ostwald / Ubbelohde) method, Liquid | – | 38.62 ± 0.81
313.15 K, Vibrating tube method, Liquid | 1477.09 ± 12 | –
318.15 K, Capillary tube (Ostwald / Ubbelohde) method, Liquid | – | 32.33 ± 0.68
318.15 K, Vibrating tube method, Liquid | 1472.32 ± 12 | –
323.15 K, Capillary tube (Ostwald / Ubbelohde) method, Liquid | – | 27.06 ± 0.57
323.15 K, Vibrating tube method, Liquid | 1467.56 ± 12 | –

O=C1CCCO1 [γ-butyrolactone] + CCCCn1cc[n+](C)c1C.O=S(=O)([N-]S(=O)(=O)C(F)(F)F)C(F)(F)F
[1]
Details | mass density [kg/m3] | viscosity [mPa·s]
293.15 K | 1129.49 ± 9 | 1.86 ± 0.04
298.15 K | 1124.59 ± 9 | 1.71 ± 0.04
303.15 K | 1119.68 ± 9 | 1.58 ± 0.03
308.15 K | 1114.78 ± 8.9 | 1.47 ± 0.03
313.15 K | 1109.87 ± 8.9 | 1.37 ± 0.03
318.15 K | 1104.96 ± 8.8 | 1.28 ± 0.03
323.15 K | 1100.05 ± 8.8 | 1.2 ± 0.03

O=C1CCCO1 [γ-butyrolactone] + CCC[n+]1ccn(C)c1C.O=S(=O)([N-]S(=O)(=O)C(F)(F)F)C(F)(F)F
[1]
Details | mass density [kg/m3] | viscosity [mPa·s]
293.15 K | 1129.49 ± 9 | 1.86 ± 0.04
298.15 K | 1124.59 ± 9 | 1.71 ± 0.04
303.15 K | 1119.68 ± 9 | 1.58 ± 0.03
308.15 K | 1114.78 ± 8.9 | 1.47 ± 0.03
313.15 K | 1109.87 ± 8.9 | 1.37 ± 0.03
318.15 K | 1104.96 ± 8.8 | 1.28 ± 0.03
323.15 K | 1100.05 ± 8.8 | 1.2 ± 0.03

O=C1CCCO1 [γ-butyrolactone] + CCn1cc[n+](C)c1C.O=S(=O)([N-]S(=O)(=O)C(F)(F)F)C(F)(F)F
[1]
Details | mass density [kg/m3] | viscosity [mPa·s]
293.15 K | 1129.49 ± 9 | 1.86 ± 0.04
298.15 K | 1124.59 ± 9 | 1.71 ± 0.04
303.15 K | 1119.68 ± 9 | 1.58 ± 0.03
308.15 K | 1114.78 ± 8.9 | 1.47 ± 0.03
313.15 K | 1109.87 ± 8.9 | 1.37 ± 0.03
318.15 K | 1104.96 ± 8.8 | 1.28 ± 0.03
323.15 K | 1100.05 ± 8.8 | 1.2 ± 0.03
